Reference: US4801456A, “Growth hormone-releasing factor analogs” (International Minerals & Chemical Corp., priority 1987, dated 1989)
Square brackets hold non-standard residues; d marks the D form. Peptide text beside a SMILES is read from it. Nle = CCCC[C@H](N)C(=O)O

Tested on: rat pituitary cells in tissue culture
Test: Bioassay of hGRF analogs: GH release from cultured pituitary cells
Format: cell-based
Conditions: for Dose Needed to Release 2.01 μg/ml of GH (ED50 value for hGRF) / Maximum GH Released / Relative Maximum Activity (% of hGRF): from curves generated by ALLFIT; for GH release at dosages comparable to native hGRF: referring to Table 1; for Potency: (ED50 of hGRF)/(Dose required to give same response as ED50 of hGRF): relative to hGRF(1-44)-NH2 = 100
Excerpt: The assay for biological activity, which is based on the ability to stimulate release of growth hormone in rat pituitary cells in tissue culture, has been described in detail (Culler, M. D.; Kenjo, T.: Obara, N.; Arimuar, A., Stimulation of cAMP. Accumulation by Human Pancreatic GH-Releasing Factor-(1-44). Am. J. Physiol. 1984, 247 (Endocrinol.Metab.10), E609-E615.
ALLFIT, the 4-parameter logistic curve fitting program available from the Biomedical Computer Technology Information Center, Vanderbilt Medical Center, Nashville TN, was used to determine ED50 and maximal stimulated values from the data. In several instances, the amount of GH released reached a maximum value and decreased with further increasing doses of the hGRF analogs. To simplify the data analysis, these values were not used in the calculations. The calculated maximal responses, the doses of the analog required to release the amount of GH released at the ED50 of the standard (hGRF) and the potencies of the analogs relative to hGRF, are given in Table 2. Generally all novel analogs were fully active and were able to stimulate the release of growth hormone with maximal values of GH release being within 80% of the value for natural hGRF.

| Structure (SMILES) | GH Released (mean ± (S.E.)) (Dose 1 × 10^-6 M) | GH Released (mean ± (S.E.)) (Dose 1 × 10^-7 M) | GH Released (mean ± (S.E.)) (Dose 1 × 10^-8 M) | GH Released (mean ± (S.E.)) (Dose 1 × 10^-9 M) | GH Released (mean ± (S.E.)) (Dose 1 × 10^-10 M) | GH Released (mean ± (S.E.)) (Dose 1 × 10^-11 M) | Dose Needed to Release 2.01 μg/ml of GH (ED50 value for hGRF) | Maximum GH Released | Relative Maximum Activity (% of hGRF) | GH release at dosages comparable to native hGRF | Potency: (ED50 of hGRF)/(Dose required to give same response as ED50 of hGRF) | Potency: (ED50 of hGRF)/(Dose required to give same response as ED50 of hGRF) (listed as [Asn^3,Asp^8,Asn^25,Nle^27 ]-hGRF(1-31)--NH2) | Potency: (ED50 of hGRF)/(Dose required to give same response as ED50 of hGRF) (listed as [Asn^3,Asp^8,Nle^27 ]-hGRF(1-31)--NH2) | times more potent than hGRF(1-44)--NH2 (on a molar basis) |
| --- | --- | --- | --- | --- | --- | --- | --- | --- | --- | --- | --- | --- | --- | --- |
| CCCC[C@H](NC(=O)[C@@H](NC(=O)[C@H](CC(N)=O)NC(=O)[C@H](CCC(N)=O)NC(=O)[C@H](CC(C)C)NC(=O)[C@H](CC(C)C)NC(=O)[C@H](CCCCN)NC(=O)[C@H](CCCNC(=N)N)NC(=O)[C@H](C)NC(=O)[C@H](CO)NC(=O)[C@H](CC(C)C)NC(=O)[C@H](CCC(N)=O)NC(=O)CNC(=O)[C@H](CC(C)C)NC(=O)[C@@H](NC(=O)[C@H](CCCCN)NC(=O)[C@H](CCCNC(=N)N)NC(=O)[C@H](Cc1ccc(O)cc1)NC(=O)[C@H](CO)NC(=O)[C@H](CC(N)=O)NC(=O)[C@@H](NC(=O)[C@H](Cc1ccccc1)NC(=O)[C@@H](NC(=O)[C@H](C)NC(=O)[C@H](CC(N)=O)NC(=O)[C@H](C)NC(=O)[C@@H](N)Cc1ccc(O)cc1)[C@@H](C)CC)[C@@H](C)O)C(C)C)[C@@H](C)CC)C(=O)N[C@@H](CO)C(=O)N[C@@H](CCCNC(=N)N)C(=O)N[C@@H](CCC(N)=O)C(=O)N[C@@H](CCC(N)=O)C(N)=O [[Asn^3,Asn^25,Nle^27], [Asn^3,Asn^25,Nle^27]-hGRF(1-31)--NH2] (H-YANAIFTNSYRKVLGQLSARKLLQNI[Nle]SRQQ-NH2) | 2.96 (0.11) μg/mL | 3.30 (0.08) μg/mL | 3.21 (0.13) μg/mL | 1.58 (0.07) μg/mL | 0.81 (0.06) μg/mL | 0.65 (0.03) μg/mL | 1.54 nM | 3.33 µg/mL | 101% | induced GH release in dosages comparable to those for native hGRF | 21% |  |  |  |
| CCCC[C@H](NC(=O)[C@@H](NC(=O)[C@H](CC(N)=O)NC(=O)[C@H](CCC(N)=O)NC(=O)[C@H](CC(C)C)NC(=O)[C@H](CC(C)C)NC(=O)[C@H](CCCCN)NC(=O)[C@H](CCCNC(=N)N)NC(=O)[C@H](C)NC(=O)[C@H](CO)NC(=O)[C@H](CC(C)C)NC(=O)[C@H](CCC(N)=O)NC(=O)CNC(=O)[C@H](CC(C)C)NC(=O)[C@@H](NC(=O)[C@H](CCCCN)NC(=O)[C@H](CCCNC(=N)N)NC(=O)[C@H](Cc1ccc(O)cc1)NC(=O)[C@H](CO)NC(=O)[C@H](CC(=O)O)NC(=O)[C@@H](NC(=O)[C@H](Cc1ccccc1)NC(=O)[C@@H](NC(=O)[C@H](C)NC(=O)[C@H](CC(N)=O)NC(=O)[C@H](C)NC(=O)[C@@H](N)Cc1ccc(O)cc1)[C@@H](C)CC)[C@@H](C)O)C(C)C)[C@@H](C)CC)C(=O)N[C@@H](CO)C(=O)N[C@@H](CCCNC(=N)N)C(=O)N[C@@H](CCC(N)=O)C(=O)N[C@@H](CCC(N)=O)C(N)=O [[Asn^3,Asp^8,Asn^25,Nle^27], [Asn^3,Asp^8,Asn^25,Nle^27]-hGRF(1-31)--NH2] (H-YANAIFTDSYRKVLGQLSARKLLQNI[Nle]SRQQ-NH2) | 3.12 (0.12) μg/mL | 2.94 (0.11) μg/mL | 1.88 (0.07) μg/mL | 0.75 (0.01) μg/mL | 0.61 (0.05) μg/mL | 0.60 (0.02) μg/mL | 12.05 nM | 3.11 µg/mL | 94% | did not induce GH release at dosages comparable to native hGRF | 3% | 5% |  |  |
| CCCC[C@H](NC(=O)[C@@H](NC(=O)[C@H](CC(=O)O)NC(=O)[C@H](CCC(N)=O)NC(=O)[C@H](CC(C)C)NC(=O)[C@H](CC(C)C)NC(=O)[C@H](CCCCN)NC(=O)[C@H](CCCNC(=N)N)NC(=O)[C@H](C)NC(=O)[C@H](CO)NC(=O)[C@H](CC(C)C)NC(=O)[C@H](CCC(N)=O)NC(=O)CNC(=O)[C@H](CC(C)C)NC(=O)[C@@H](NC(=O)[C@H](CCCCN)NC(=O)[C@H](CCCNC(=N)N)NC(=O)[C@H](Cc1ccc(O)cc1)NC(=O)[C@H](CO)NC(=O)[C@H](CC(=O)O)NC(=O)[C@@H](NC(=O)[C@H](Cc1ccccc1)NC(=O)[C@@H](NC(=O)[C@H](C)NC(=O)[C@H](CC(N)=O)NC(=O)[C@H](C)NC(=O)[C@@H](N)Cc1ccc(O)cc1)[C@@H](C)CC)[C@@H](C)O)C(C)C)[C@@H](C)CC)C(=O)N[C@@H](CO)C(=O)N[C@@H](CCCNC(=N)N)C(=O)N[C@@H](CCC(N)=O)C(=O)N[C@@H](CCC(N)=O)C(N)=O [[Asn^3,Asp^8,Nle^27], [Asn^3,Asp^8,Nle^27]-hGRF(1-31)--NH2] (H-YANAIFTDSYRKVLGQLSARKLLQDI[Nle]SRQQ-NH2) | 2.74 (0.19) μg/mL | 3.30 (0.27) μg/mL | 2.27 (0.07) μg/mL | 1.04 (0.05) μg/mL | 0.58 (0.04) μg/mL | 0.65 (0.04) μg/mL | 6.74 nM | 3.53 µg/mL | 107% | did not induce GH release at dosages comparable to native hGRF | 5% |  | 3% |  |
| CCCC[C@H](NC(=O)[C@@H](NC(=O)[C@H](CC(=O)O)NC(=O)[C@H](CCC(N)=O)NC(=O)[C@H](CC(C)C)NC(=O)[C@H](CC(C)C)NC(=O)[C@H](CCCCN)NC(=O)[C@H](CCCNC(=N)N)NC(=O)[C@H](C)NC(=O)[C@H](CO)NC(=O)[C@H](CC(C)C)NC(=O)[C@H](CCC(N)=O)NC(=O)CNC(=O)[C@H](CC(C)C)NC(=O)[C@@H](NC(=O)[C@H](CCCCN)NC(=O)[C@H](CCCNC(=N)N)NC(=O)[C@H](Cc1ccc(O)cc1)NC(=O)[C@H](CO)NC(=O)[C@H](CC(N)=O)NC(=O)[C@@H](NC(=O)[C@H](Cc1ccccc1)NC(=O)[C@@H](NC(=O)[C@H](C)NC(=O)[C@H](CC(N)=O)NC(=O)[C@H](C)NC(=O)[C@@H](N)Cc1ccc(O)cc1)[C@@H](C)CC)[C@@H](C)O)C(C)C)[C@@H](C)CC)C(=O)N[C@@H](CO)C(=O)N[C@@H](CCCNC(=N)N)C(=O)N[C@@H](CCC(N)=O)C(=O)N[C@@H](CCC(N)=O)C(N)=O [[Asn^3,Nle^27], [Asn^3, Nle^27]-hGRF(1-31)--NH2] (H-YANAIFTNSYRKVLGQLSARKLLQDI[Nle]SRQQ-NH2) | 3.22 (0.16) μg/mL | 3.05 (0.09) μg/mL | 2.90 (0.12) μg/mL | 2.40 (0.06) μg/mL | 0.97 (0.01) μg/mL | 0.67 (0.08) μg/mL | 0.58 nM | 3.09 µg/mL | 93% | induced GH release in dosages comparable to those for native hGRF | 55% |  |  |  |
| CCCC[C@H](NC(=O)[C@@H](NC(=O)[C@H](CC(N)=O)NC(=O)[C@H](CCC(N)=O)NC(=O)[C@H](CC(C)C)NC(=O)[C@H](CC(C)C)NC(=O)[C@H](CCCCN)NC(=O)[C@H](CCCNC(=N)N)NC(=O)[C@H](C)NC(=O)[C@H](CO)NC(=O)[C@H](CC(C)C)NC(=O)[C@H](CCC(N)=O)NC(=O)CNC(=O)[C@H](CC(C)C)NC(=O)[C@@H](NC(=O)[C@H](CCCCN)NC(=O)[C@H](CCCNC(=N)N)NC(=O)[C@H](Cc1ccc(O)cc1)NC(=O)[C@H](CO)NC(=O)[C@H](CC(N)=O)NC(=O)[C@@H](NC(=O)[C@H](Cc1ccccc1)NC(=O)[C@@H](NC(=O)[C@H](C)NC(=O)[C@H](CC(=O)O)NC(=O)[C@H](C)NC(=O)[C@@H](N)Cc1ccc(O)cc1)[C@@H](C)CC)[C@@H](C)O)C(C)C)[C@@H](C)CC)C(=O)N[C@@H](CO)C(=O)N[C@@H](CCCNC(=N)N)C(=O)N[C@@H](CCC(N)=O)C(=O)N[C@@H](CCC(N)=O)C(N)=O [[Asn^25,Nle^27], [Asn^25,Nle^27]-hGRF(1-31)--NH2] (H-YADAIFTNSYRKVLGQLSARKLLQNI[Nle]SRQQ-NH2) | 3.22 (0.24) μg/mL | 3.22 (0.09) μg/mL | 3.10 (0.12) μg/mL | 3.12 (0.15) μg/mL | 1.84 (0.06) μg/mL | 0.72 (0.05) μg/mL | 0.12 nM | 3.18 µg/mL | 96% | induced GH release in dosages comparable to those for native hGRF | 267% |  |  | 2.7 times |
